Experimental data: patent US6140327A, “Morpholino-n-ethyl ester derivative of an indole sPLA2 inhibitor” (Eli Lilly and Company, priority 1999, dated 2000)

Tests used:
[1] = Monkey Pharmacokinetic Study (bioavailability); type: in vivo; details: conclusion compared with other esters of the parent and the 2-methyl homolog, oral administration
Description: Plasma was assayed by HPLC to measure concentrations of the different sPLA2 inhibitors (measured as free acids).
Cmax (maximal plasma concentrations), and AUC values were determined from the mean plasma concentration-time profiles.

[2] = molecular target: recombinant human secreted phospholipase A2; details: guinea pig lung tissue; sPLA2 10 ug/ml; read-out: Tissue test secreted PLA2 Apparent KB; cited from earlier work
[3] = molecular target: recombinant human secreted phospholipase A2; details: cited from earlier work

| SMILES | bioavailability (in words) [1] | bioavailability (in words) ([1]; listed as formula (I)) | Kb [2] [nM] | IC50 ([3]; chromogenic assay, 3-4 tests, read-out: Inhibition of human secreted PLA2 IC50 ± mean deviation (3-4 tests)) [nM] | inhibiting sPLA2 (conclusion in words) ([3]; conclusion of Table I) |
| --- | --- | --- | --- | --- | --- |
| CCc1c(C(=O)C(N)=O)c2c(OCC(=O)OCCN3CCOCC3)cccc2n1Cc1ccccc1 [Compound 1, ((3-(2-amino-1,2-dioxoethyl)-2-ethyl-1-(phenylmethyl)-1H-indol-4-yl)oxy)acetic acid morpholino-N-ethyl ester] | unexpectedly more bioavailable than other esters of the parent sPLA2 inhibitor of formula II and also more bioavailable than the 2-methyl homolog of the parent sPLA2 inhibitor of formula II | highly bioavailable upon oral administration compared to closely related ester type prodrugs | – | – | – |
| CCc1c(C(=O)C(N)=O)c2c(OCC(=O)O)cccc2n1Cc1ccccc1 [formula (II), ((3-(2-amino-1,2-dioxoethyl)-2-ethyl-1-(phenylmethyl)-1H-indol-4-yl)oxy)acetic acid] | – | – | 88.7 ± 18.2 | 9 ± 1.73 | highly active in inhibiting sPLA2 |
